The values below come from patent US20220087961A1, “TREATMENT METHODS OF TRIPHENYL CALCILYTIC COMPOUNDS” (CALCILYTIX THERAPEUTICS, INC., priority 2020, published 2022).

For one series, the system named is subjects with ADH1. Nature of the series: Phase 2b open-label dose-ranging study, Period 1 / Cohort 1. The series is classed as in vivo, human. The text has this: A Phase 2b, open-label dose-ranging study is designed to evaluate the safety, tolerability, and efficacy of CLTX-305 to maintain normalized albumin-corrected blood calcium (cCa) in subjects with hypocalcemia due to ADH1. An overview scheme of the Phase 2b study is illustrated in FIG. 2.
Period 1: an inpatient stay that consists of 5 dosing days during which subjects will undergo a once-daily (QD) dose escalation for 3 days followed by 2 days of twice daily (BID) dosing at an individualized test dose of CLTX-305.
In Period 1, eligible Cohort 1 subjects are admitted to the NIH CC after completing screening tests. On days 1-3 of admission, Cohort 1 subjects will undergo single daily dosing and protocol-specified dose-escalation of CLTX-305 from the initial dose of 30 mg on Day 1, increasing to a maximum dose of 180 mg on Day 3. Based on the individualized responses to QD dose escalation an individualized dose of CLTX-305 will be chosen for BID administration on Days 4 and 5.
Days 1, 2 and 3 (QD Dose Escalations): Up to 8 subjects (minimum of 5) will undergo a single-dose, dose-escalation over the first 3 days of admission in Period 1. Morning doses will be administered on Days 1, 2 and 3, respectively, accompanied by frequent blood and urine sampling for 24-hours for PK/PD measures. CLTX-305 will be administered in the morning within 30 minutes prior to breakfast. If dose escalation is limited due to tolerability or hypercalcemia, then the investigator, in consultation with sponsor, may choose to interrupt the pre-specified dose escalation. In this case, the investigator, in consultation with sponsor, may choose to repeat the last well tolerated dose on Days 2 and 3, or titrate down as appropriate.
Days 4 and 5 (BID Dose Escalation): Based on each subject's individual PD responses to QD dose-escalation, an individualized dose of CLTX-305 will be chosen for BID dosing on Days 4 and 5. CLTX-305 will be administered once in the morning and once in the evening, within 30 minutes prior to breakfast and dinner. The dose selected should be based on each subject's response in cCa and/or PTH levels during the prior QD dosing (Days 1-3).
Days 1, 2 and 3 (QD Dose Escalations): Up to 8 subjects (minimum of 5) will undergo a single-dose, dose-escalation over the first 3 days of admission. Morning doses of 30, 90 and 180 mg will be administered on Days 1, 2 and 3, respectively, accompanied by frequent blood and urine sampling for 24-hours for PK/PD measures (For details of PK/PD assays and timepoints as shown in Table 4A-Table 4C, Table 5, and Table 6A-Table 6C CLTX-305 will be administered in the morning, with water, within 30 minutes prior to breakfast. If dose escalation is limited due to tolerability or hypercalcemia, the investigator, in consultation with sponsor, may choose to repeat the last well-tolerated dose on Days 2 and 3, or down-titrate, as appropriate (See below for dosing guidance algorithm).
In order to characterize both the pre-study calcemic status as well as changes associated with experimental interventions, the protocol will rely on frequent measurement of albumin-corrected blood calcium concentrations. Assays will be conducted according to specifications of the NIH Clinical Center Laboratory, Bethesda, Md. The main indicator of normal versus abnormal blood calcium levels will be based on the correction for serum or plasma albumin according to the formula corrected calcium (cCa)=measured total calcium (mg/dL)+0.8(4−albumin (g/dL)) OR measured total calcium (mmol/L)+0.2(4−albumin (g/dL)), recognizing that the total calcium reported in SI units (mmol/L) can be converted to conventional units (mg/dL) by multiplying by 4. Given that enrolled subjects are expected to have both normal and stable albumin levels, the measures of total calcium and cCa are likely to be similar throughout the time course of this study. […]

Another series concerns rabbits. The conditions noted are these: fetuses; cited from earlier work.
The next series deals with T1, CaSR (Homo sapiens, UniProt P41180).
T1 sequence (P41180 20-1078): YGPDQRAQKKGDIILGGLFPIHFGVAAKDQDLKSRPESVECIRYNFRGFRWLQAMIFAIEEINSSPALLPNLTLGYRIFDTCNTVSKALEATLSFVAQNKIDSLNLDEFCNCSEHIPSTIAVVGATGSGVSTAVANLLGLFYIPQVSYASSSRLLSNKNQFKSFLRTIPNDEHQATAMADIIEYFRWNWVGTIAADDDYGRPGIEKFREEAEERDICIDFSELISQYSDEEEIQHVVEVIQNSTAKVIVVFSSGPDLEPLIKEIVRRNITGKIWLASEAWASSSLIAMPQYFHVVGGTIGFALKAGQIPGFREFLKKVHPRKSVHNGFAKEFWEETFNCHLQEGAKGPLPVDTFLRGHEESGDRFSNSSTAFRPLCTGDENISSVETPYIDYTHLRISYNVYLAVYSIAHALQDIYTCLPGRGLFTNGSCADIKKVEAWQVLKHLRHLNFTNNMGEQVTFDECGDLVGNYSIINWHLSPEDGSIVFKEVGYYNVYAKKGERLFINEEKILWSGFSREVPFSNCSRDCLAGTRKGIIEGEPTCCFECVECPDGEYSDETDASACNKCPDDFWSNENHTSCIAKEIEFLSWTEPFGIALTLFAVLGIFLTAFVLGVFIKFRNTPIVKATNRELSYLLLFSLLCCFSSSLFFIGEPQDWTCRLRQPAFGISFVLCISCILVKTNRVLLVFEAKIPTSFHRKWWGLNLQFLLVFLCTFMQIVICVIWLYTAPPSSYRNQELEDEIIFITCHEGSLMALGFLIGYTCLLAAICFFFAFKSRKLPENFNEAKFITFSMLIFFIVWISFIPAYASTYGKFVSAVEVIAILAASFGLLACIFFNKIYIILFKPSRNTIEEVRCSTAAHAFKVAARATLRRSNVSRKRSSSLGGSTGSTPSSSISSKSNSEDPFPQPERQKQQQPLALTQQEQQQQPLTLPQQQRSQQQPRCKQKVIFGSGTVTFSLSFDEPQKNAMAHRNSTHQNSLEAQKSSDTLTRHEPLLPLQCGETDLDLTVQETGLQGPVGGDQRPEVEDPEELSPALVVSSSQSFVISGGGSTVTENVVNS
Particulars: cell-based assays at 2 mM extracellular calcium; read-out: IC50, inhibition of the CaSR via allosteric modulation; cited from earlier work.

The conditions of series [1]: preclinical; dose-limiting effects were mechanism-based serum calcium elevations; cited from earlier work.
A further series concerns healthy subjects. The conditions noted are these: single oral dose of up to 100 mg; cited from earlier work.

Regarding `Cc1cc(-c2ccccc2[C@@H](C)OC[C@H](O)CNC(C)(C)Cc2ccc(Cl)c(F)c2)ccc1C(=O)O` [CLTX-305, encaleret], in the series on subjects with ADH1 (Period 1), the serious adverse events result is given as “no serious adverse events reported”. The “plasma exposure, dose relation (FIG. 8)” value with subjects with ADH1 (Period 1, 30-180 mg) is “dose proportional increase in plasma exposure”. Moreover, the “Number of AEs” value in the series on subjects with ADH1 (Period 1, N=6) is 9 n. Further, the tolerability entry in the series on subjects with ADH1 (Period 1, escalating oral doses once or twice daily over 5 days) is “well-tolerated”. Moreover, the “PTH, mean level over 24 hours by day 5” value with subjects with ADH1 (Period 1, n=6, mean±SD, baseline 3.4±4.5) worked out at 64.8 ± 49.6 pg/mL. Moreover, in the series with subjects with ADH1 (Period 1, n=6, baseline 1.6±0.4), the “Magnesium, 24-hour day 5 mean” value worked out at 2.0 ± 0.5 mg/dL. Moreover, the “Phosphorus, 24-hour day 5 mean” value with subjects with ADH1 (Period 1, n=6, baseline 4.5±0.7) is 2.9 ± 0.5 mg/dL. For the same molecule, the “Albumin-corrected blood calcium (cCa), 24-hour mean on day 5” value in the series on subjects with ADH1 (Period 1, n=6, baseline 7.6±0.6) was determined as 9.0 ± 0.5 mg/dL. In the series on subjects with ADH1 (Period 1, n=6, screening 436±255 on conventional therapy), the “Twenty-four hour urine calcium on day 5” value was found to be 63 ± 127 mg/day. Moreover, in the series on subjects with ADH1 (Period 1, of 6), the “subjects in whom urinary calcium excretion became normal” value was found to be 3 subjects and the “subjects in whom urinary calcium excretion became undetectable” value amounted to 3 subjects. In the series with rabbits, the “dose at which incidence of fetal skeletal anomalies (fusion of the sternebra) was increased” value is recorded as no less than 30 mg/kg. Moreover, on CaSR, the half-inhibitory concentration (IC50) is 86.2 nM. In addition, the “off-target or organ-specific toxicities” value in series [1] is listed as “no off-target or other tissue or organ-specific toxicities were identified”. Besides, the QTc prolongation entry in the series on healthy subjects was “no clinically meaningful QTc prolongation”.
